# Measurements published in paper PMC6105804, “In Vitro and In Vivo Evaluation of APX001A/APX001 and Other Gwt1 Inhibitors against Cryptococcus” (Antimicrobial Agents and Chemotherapy, 2018).
# Key:
# [1] = system: C. neoformans strain H99; assay: Murine cryptococcal meningitis model with ABT pretreatment (preliminary experiment); format: in vivo, Cryptococcus neoformans; details: 7 days
# Procedure: In a preliminary experiment, the efficacies of APX001, APX2096, and APX2097 were evaluated in the disseminated model of CM (n = 5 mice/cohort). ABT at 100 mg/kg was administered orally to male CD-1 mice 2 h prior to APX compound administration. Mice were injected with 6.9 × 10^4 CFU of C. neoformans strain H99 per mouse via the lateral tail vein at time zero. Treatment with each prodrug was initiated at about 1 h postinfection by i.p. administration and continued daily for 7 days, with 100-mg/kg ABT being administered orally 2 h prior to each APX compound dose.
# (§1) ABT at 100 mg/kg was administered orally to male CD-1 mice at 2 h prior to each APX compound dose. Mice were injected with 6.9 × 10^4 CFU of C. neoformans strain H99 per mouse via the lateral tail vein at time zero. Treatment with the APX compound was initiated at about 1 h postinfection by i.p. administration and continued for 7 days, with 100-mg/kg ABT being administered orally 2 h prior to each APX compound dose. […] Fungal burden data were log10 transformed and evaluated using Kruskal-Wallis tests with Dunn's multiple-comparison test for post hoc analysis (Prism software, v5; GraphPad Software, Inc., San Diego, CA). A P value of ≤0.05 was considered statistically significant (*, P ≤ 0.05; **, P ≤ 0.01). The 95% confidence interval (CI) is presented.
# (§2) C. neoformans strain H99 was grown in yeast extract-peptone-dextrose broth at 30°C on a shaker (220 rpm) for 24 h, centrifuged (1,980 relative centrifugal force), and washed twice in phosphate-buffered saline (PBS), resuspended in PBS, and quantified by hemacytometric count. Male CD-1 mice were infected with ∼5 × 10^4 CFU per mouse via lateral tail vein injection of 100 μl. Mice were weighed, and treatment was begun within 1 h after infection. Treatments were administered daily for 7 days. Mice were weighed daily and observed for acute and chronic adverse symptoms. Mice were sacrificed on day 8, and the brain and left lung were homogenized and cultured for quantitative determination of the tissue burden (number of CFU per gram of tissue). Tissues were homogenized for 25 s in 1 ml phosphate-buffered saline using two 6.5-mm steel beads and a Mini-Beadbeater 16 apparatus (Biospec Products, Inc., Bartlesville, OK) and serially diluted in 10-fold steps. Aliquots (100 μl) of homogenate were plated and incubated for 3 to 7 days at 37°C. Fungal burden data were log10 transformed and evaluated using Kruskal-Wallis tests with Dunn's multiple-comparison test for post hoc analysis (Prism software, v5; GraphPad Software, Inc., San Diego, CA). A P value of ≤0.05 was considered statistically significant.
# [2] = system: C. neoformans strain H99; assay: Murine cryptococcal meningitis model with ABT, dose-response study; format: in vivo, Cryptococcus neoformans
# Procedure: A dose-response study was performed with APX2096 and APX2097 to confirm the observed activity. In this study, QD doses of 7.5, 20, and 60 mg/kg were evaluated in conjunction with the administration of ABT. A 60-mg/kg dose QD without ABT was also evaluated as a control.
# FIG 3 Dose-response of APX2096 and APX2097 in a murine model of cryptococcal meningitis in conjunction with ABT administration. ABT at 100 mg/kg was administered orally to male CD-1 mice at 2 h prior to each APX compound dose. Mice were injected with 4.8 × 10^4 CFU C. neoformans strain H99 per mouse via the lateral tail vein at time zero. Treatment with the APX compounds was initiated at 1 h postinfection by i.p. administration and continued for 7 days, with 100-mg/kg ABT being administered orally 2 h prior to each APX compound dose. The correction factors for prodrug potencies versus the potencies of the active moieties were similar enough such that the same factor (1.3) was used for all APX compounds. Fungal burden data were log10 transformed and evaluated using Kruskal-Wallis tests with Dunn's multiple-comparison test for post hoc analysis (Prism software, v5; GraphPad Software, Inc., San Diego, CA). […] A P value of ≤0.05 was considered statistically significant (*, P ≤ 0.05; **, P ≤ 0.01; ***, P ≤ 0.001). The 95% confidence interval (CI) is presented.
# as §2
# [3] = system: C. neoformans strain H99; assay: Delayed-treatment model of cryptococcal meningitis; format: in vivo, Cryptococcus neoformans; details: treatment from 24 h after infection, QD 7 days; APX2096 60 mg/kg i.p. + ABT, AMB 3 mg/kg i.p.
# Procedure: As in the previous mouse model, 100-mg/kg ABT (p.o.) was administered 2 h prior to each APX2096 dose (n = 5 mice/cohort). Infection was initiated on day 1, and treatment was initiated 24 h later (day 2) rather than 1 h later. Treatments were administered for 7 days (the final dose was administered on day 8), and mice were sacrificed on day 9 for CFU enumeration.
# Male CD-1 mice were infected with 5.4 × 10^4 CFU per mouse via lateral tail vein injection. […] A dose of 100-mg/kg ABT was administered orally 2 h prior to each APX2096 dose. Mice were sacrificed 24 h after the last dose, and the brain and left lung were homogenized and cultured for quantitative determination of the tissue burden (number of CFU per gram of tissue). Fungal burden data were log10 transformed and evaluated using Kruskal-Wallis tests with Dunn's multiple-comparison test for post hoc analysis (Prism software, v5; GraphPad Software, Inc., San Diego, CA). A P value of ≤0.05 was considered statistically significant (*, P ≤ 0.05; **, P ≤ 0.01). The 95% confidence interval (CI) is presented.
# Fungal burden data were log10 transformed and evaluated using Kruskal-Wallis tests with Dunn's multiple-comparison test for post hoc analysis (Prism software, v5; GraphPad Software, Inc., San Diego, CA). A P value of ≤0.05 was considered statistically significant.
# [4] = Acute toxicity and survival observed in the CM model with ABT; format: in vivo, mouse; details: i.p. dosing + ABT; dose then reduced to 60 mg/kg for surviving mice
# Procedure: as §1, §2
# [5] = 34 mg/kg QD i.p. + ABT 100 mg/kg p.o.
compound,measurement,setting,value
Nc1c(-c2cc(Cc3ccc(Oc4cccc(F)n4)cc3)no2)ccc[n+]1COP(=O)([O-])O [APX2096],reduction in brain fungal burden,[1]; [5],7.05 log10 CFU/g
same,reduction in lung fungal burden,[1]; [5],approximately 4.67 log10 CFU/g
same,reduction in brain fungal burden,[1]; 60 mg/kg i.p. (dose reduced after day 1) + ABT,7.13 log10 CFU/g
same,reduction in lung fungal burden,"[1]; 60 mg/kg i.p. (dose reduced after day 1) + ABT, burden below the limit of detection",approximately 4.67 log10 CFU/g
same,reduction in brain fungal burden,[2]; 20 mg/kg QD i.p. + ABT,2.95 log10 CFU/g
same,reduction in lung fungal burden,[2]; 20 mg/kg QD i.p. + ABT,3.69 log10 CFU/g
same,"reduction in lung burden, without ABT","[2]; 60 mg/kg/day i.p. without ABT, nonsignificant",0.74 log10 CFU/g
same,reduction in brain tissue fungal burden vs untreated control,[3],6.84 log10 CFU/g
same,reduction of the lung tissue fungal burden vs untreated control,[3],4.59 log10 CFU/g
same,Acute toxicity observed (day of treatment),[4],day 1
